Assay in all cases: NCI-60 cell line screen, 48 h
Experiment [1] concerns 786-0 renal.
The test system of experiment [2] is CCRF-CEM leukemia.
For experiment [3], the system named is EKVX NSCLC.
Experiment [4] deals with HCC-2998 colon.
In experiment [5] the test system is MDA-N.
Experiment [6] has as its system NCI-H460 lung.
In experiment [7] the test system is OVCAR-8 ovarian.
Experiment [8] concerns SN12C renal.
In experiment [9] the test system is SW-620 colon.
Experiment [10] relates to T-47D breast.
For experiment [11], the system named is TK-10 renal.

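Briefly, cells in 96-well plates were exposed to five compound concentrations for 48 h, and endpoints were estimated by linear interpolation. TGI denotes the concentration required for complete inhibition of growth.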

Turning to `COc1ccc2cc(CNCCCCCCNC(=O)Nc3cccc4ccccc34)ccc2c1`, the TGI in [1], in experiment [2], in experiment [3], in [4], in experiment [5] and in experiment [6] was above 100 µM throughout. In addition, the TGI in experiment [7], in experiment [8], in [9], in [10] and in experiment [11] was above 100 µM each time.
`C=CCCCCCCCCCOC1C=CC(O)C(CO)O1` (stereo not drawn): the TGI in experiment [1] is above 100 µM; in experiment [3], above 100 µM; in experiment [4] it was above 100 µM; in experiment [5], 82.1 µM; in experiment [6] it was 63.7 µM; in [7], 37.4 µM. In addition, the TGI in experiment [8], in [9], in experiment [10] and in experiment [11] was above 100 µM in each case.
Consider `c1ccc(-c2cc(-c3ccccc3)nc(-c3ccncc3)c2)cc1`, for which the TGI in [1], in [2], in experiment [3], in experiment [4], in experiment [5] and in experiment [7] was above 100 µM in each case. The TGI in experiment [8], in experiment [9], in experiment [10] and in experiment [11] was above 100 µM in each case.
For `CN(CCNC(=O)c1nn(C)c2c1Cc1ccccc1-2)CCNC(=O)c1nn(C)c2c1Cc1ccccc1-2`, the TGI in experiment [1] amounted to 27.7 µM; in experiment [3], 72.8 µM; in experiment [4], 25.5 µM; in [5], 29.4 µM; in experiment [6] it was 31.7 µM; in experiment [7], 42.2 µM. Moreover, the TGI in experiment [8] was 30.8 µM; in experiment [9], 38.9 µM; in experiment [10], 91.5 µM; in [11] it was 29.6 µM.
Turning to `C=CCSC1=N/C(=C\c2ccc(C)cc2)C(=O)N1CC=C`, the TGI in [1] was 58.4 µM; in [3] it was 34.1 µM; in [4], 74.3 µM; in [5] it was 45.1 µM; in experiment [6], above 100 µM; in [7], above 100 µM. In addition, the TGI is 28.2 µM in experiment [8], above 100 µM in [9], 78.7 µM in [10] and above 100 µM in experiment [11].
In the case of `C#C[C@]1(O)CC[C@H]2[C@@H]3CCC4=C/C(=N/OC(=O)c5cccc6cc7ccccc7nc56)CC[C@@H]4[C@H]3CC[C@@]21CC`, the TGI in [1], in experiment [2], in [4], in experiment [5], in [6] and in [7] was above 100 µM each time. Also, the TGI in experiment [8], in experiment [9] and in experiment [10] was above 100 µM each time.
Turning to `O=C(NCC(O)COc1ccccc1)c1ccccc1O` (stereo not drawn), the TGI in experiment [1], in experiment [2], in [3], in experiment [4], in experiment [5] and in experiment [7] was above 100 µM throughout. Further, the TGI in experiment [8], in experiment [9], in experiment [10] and in experiment [11] was above 100 µM in each case.
For the molecule `O=C(OC1C#CCSCC#C/C=C\1)c1ccc2c(c1)C(=O)c1ccccc1C2=O` (stereo not drawn), the TGI in [2], in experiment [3], in experiment [4], in experiment [5], in [6] and in experiment [7] was above 100 µM throughout. Moreover, the TGI in experiment [8] was above 100 µM; in [9], above 100 µM; in experiment [10], above 100 µM; in experiment [11] it was 80.6 µM.
With `Cc1cccc(NC(=S)NNC(=O)c2cc(-c3ccccc3)nc3ccccc23)c1`, the TGI in experiment [1] is 85.1 µM; in [2], 35.4 µM; in [4], 57.3 µM; in experiment [5], above 100 µM; in experiment [6], 85.9 µM; in [7], above 100 µM. The TGI in [8], in experiment [9], in [10] and in experiment [11] was above 100 µM in each case.
For the molecule `CC1(C)OCC(/C=C\C(O)CC2(C)OCCO2)CO1` (stereo not drawn), the TGI in experiment [1], in experiment [3], in [4], in [5], in experiment [6] and in experiment [7] was above 100 µM throughout. The TGI in experiment [8], in experiment [9], in experiment [10] and in experiment [11] was above 100 µM each time.
Turning to `CC(=O)N(C(=O)CC(=O)N1N=C(C)C(N=Nc2cccc([N+](=O)[O-])c2)C1=O)c1ccc(Cl)cc1` (stereo not drawn), the TGI in [1], in experiment [2], in experiment [4], in experiment [5], in experiment [7] and in [8] was above 10 µM each time. Moreover, the TGI in experiment [9], in [10] and in experiment [11] was above 10 µM each time.
With `O=C(O)COc1c(Cl)cc(Cl)c(C(c2c(Cl)cc(Cl)c(OCC(=O)O)c2Cl)C(Cl)(Cl)Cl)c1Cl`, the TGI in experiment [1] was above 100 µM; in experiment [4], 28.6 µM; in experiment [5], above 100 µM; in experiment [6] it was 89.7 µM; in experiment [7], above 100 µM; in experiment [8], above 100 µM. Also, the TGI was above 100 µM in [9], above 100 µM in experiment [10] and 95.8 µM in experiment [11].
Turning to `COc1ccc(Cl)cc1NC(=O)O/N=C(\Cl)C(C)C`, the TGI was 27.1 µM in experiment [1]; above 29.7 µM in experiment [2]; 13.5 µM in experiment [3]; 35.7 µM in experiment [4]; 26.2 µM in [5]; 37.6 µM in experiment [6]. In addition, the TGI in experiment [7] came out at 32.7 µM; in [8], 23.4 µM; in experiment [10], 16.8 µM; in experiment [11], 6.93 µM.
Consider `CCN(CC)C(=O)N[C@@H](CC(C)C)C(=O)NC`, for which the TGI in [1], in experiment [2], in experiment [3], in experiment [4], in experiment [5] and in experiment [6] was above 100 µM each time. Further, the TGI in experiment [7], in experiment [8], in [9] and in [10] was above 100 µM in each case.

For the origin of these results see PubChem BioAssay (NCI).
